This is an account of results in article PMC11807725, “Screening and Antioxidant Activities Evaluation of Peptides From Abalone (Haliotis discus hannai Ino)” (Food Science & Nutrition, 2025).

Peptide text beside a SMILES is read from it. Where only a bound is given, the exact number is not on record here.

Format in all cases: cell-based, human
For data set [1], the system named is HUVECs. Description: Cytotoxicity testing of peptides in HUVECs (CCK-8). The conditions noted are these: for effect on HUVEC viability (in words): vs control p < 0.01; for cytotoxicity to HUVECs (in words) / toxicity to HUVECs (in words) / effect on HUVEC growth (in words): 24 h, CCK-8; for toxicity to HUVECs (in words): concentration range 3.9–1000 μg/mL; for effect on HUVEC growth (in words): within 3.9–1000 μg/mL. As for the experimental part:
Peptide cytotoxicity in HUVECs was assessed using the CCK‐8 assay to determine cell viability (Suo et al. [2022]). HUVECs were digested with 0.25% trypsin, resuspended in RPMI 1640 complete medium containing 10% FBS at a density of 5 × 10^4 cells/mL, and seeded into 96‐well plates at 100 μL/well. Cells were incubated in a CO2 incubator (37°C, 5% CO2) for 12 h.
Control and experimental groups were established with six replicates each. After cell adhesion, 10 μL of peptide solution was added to the experimental groups at final concentrations of 3.9, 7.8, 15.6, 31.25, 62.5, 125, 250, 500, and 1000 μg/mL, whereas the control group received an equivalent volume of complete medium. After 24 h of incubation in the CO2 incubator, 10 μL of CCK‐8 solution was added to each well, and cells were incubated for 1 h. Optical density (OD) was measured at 450 nm using an Infinite M1000 Pro microplate reader (Tecan, Switzerland). Cell viability was calculated using the following formula: Cell Viability%=AS−AO/AC−AO×100% where A C represents the OD of the control group, A S indicates the OD of the experimental group, and A O is the OD of the blank wells.

In data set [2] the test system is HUVECs. The experiment in a line: Establishment of the AAPH-induced HUVEC oxidative damage model (CCK-8 viability). The conditions noted are these: 24 h; for cell survival rate: CCK-8. As for the experimental part:
The oxidative damage model was established using the method described by Li et al. ([2023]). HUVECs were seeded into 96‐well plates at a density of 5 × 10^4 cells/mL at 100 μL/well and incubated in a CO2 incubator (37°C, 5% CO2) for 12 h.

The subject of data set [3] is HUVECs damaged by AAPH. Description: ROS levels in AAPH-damaged HUVECs (DCFH-DA). The note with it: 24 h after 6 mmol/L AAPH 24 h, DCFH-DA fluorescence. As for the experimental part: Model and experimental groups were established, and HUVECs were seeded into 96-well plates at a density of 5 × 10^4 cells/mL at 100 μL/well, with six replicates per group. After cell adhesion, the control group received the medium, whereas the model and experimental groups were treated with 10 μL of AAPH solution to a final concentration of 6 mmol/L. After 24 h of incubation, experimental groups were treated with 10 μL of peptide […] at final concentrations of 250, 500, and 1000 μg/mL. The control and model groups received an equivalent volume of the medium. After another 24 h of incubation, ROS levels were measured according to the instructions of the ROS detection kit. Cells were washed twice with PBS, treated with 10 μL of 10 μmol/L DCFH-DA working solution, and incubated in the dark for 30 min in the CO2 incubator (37°C, 5% CO2). The cells were then washed three times with PBS, and the fluorescence intensity was measured using an Infinite […] microplate reader (Tecan, Switzerland).

In data set [4] the test system is HUVECs damaged by AAPH. The experiment in a line: GSH content in AAPH-damaged HUVECs. The conditions noted are these: 250, 500, and 1000 μg/mL, 24 h after 6 mmol/L AAPH 24 h; p < 0.05; three replicates. The procedure:
(§1) The model and experimental groups were established, and HUVECs were seeded into 6-well plates at a density of 5 × 10^4 cells/mL at 2 mL/well, with three replicates per group. After cell adhesion, the model and experimental groups were treated with 2 mL of AAPH solution at a final concentration of 6 mmol/L, whereas the control group received an equivalent volume of the medium. After 24 h of incubation, experimental groups were treated with 200 μL of peptide […] at a final concentration of 250, 500, and 1000 μg/mL. The control and model groups received an equivalent volume of the medium. After 24 h incubation, the cells were collected, and the protein content was measured using the BCA protein assay kit. The activities of SOD, CAT, and GSH were determined using the respective assay kits.

In data set [5] the test system is HUVECs damaged by AAPH. Description: SOD activity in AAPH-damaged HUVECs. The conditions noted are these: 250, 500, and 1000 μg/mL, 24 h after 6 mmol/L AAPH 24 h; p < 0.05; three replicates. The procedure: as §1
In data set [6] the test system is HUVECs damaged by AAPH. The experiment in a line: CAT activity in AAPH-damaged HUVECs. The conditions noted are these: 250, 500, and 1000 μg/mL, 24 h after 6 mmol/L AAPH 24 h; p < 0.05; three replicates. As for the experimental part:
as §1

Data set [7] relates to HUVECs damaged by AAPH. The note with it: at different concentrations, 6 mmol/L AAPH model, p > 0.05. As for the experimental part:
The experiment included control, model, and experimental groups. HUVECs were seeded into 96‐well plates at a density of 5 × 10^4 cells/mL at 100 μL per well, with six replicates per group. After cell adhesion, the model and experimental groups were treated with 10 μL of AAPH solution to a final concentration of 6 mmol/L, whereas the control group received an equivalent volume of medium. After 24 h, the experimental groups were treated with 10 μL of peptide solutions to final concentrations of 3.9, 7.8, 15.6, 31.25, 62.5, 125, 250, 500, and 1000 μg/mL. The control and model groups received an equivalent volume of medium.

Setting [8] is: concentrations of 3.9–500 μg/mL.

`CC[C@H](C)[C@H](NC(=O)[C@H](CCC(=O)O)NC(=O)[C@H](CCSC)NC(=O)[C@@H]1CCCN1C(=O)[C@@H](NC(=O)[C@H](Cc1c[nH]cn1)NC(=O)[C@H](CC(N)=O)NC(=O)[C@H](CO)NC(=O)[C@H](CCC(N)=O)NC(=O)[C@H](CO)NC(=O)[C@@H](NC(=O)[C@H](Cc1c[nH]c2ccccc12)NC(=O)[C@@H](NC(=O)[C@@H](N)Cc1ccccc1)[C@@H](C)O)C(C)C)[C@@H](C)CC)C(=O)N[C@@H](CCC(=O)O)C(=O)N[C@@H](CCC(=O)O)C(=O)N[C@@H](CC(=O)O)C(=O)N[C@@H](CO)C(=O)N[C@@H](C)C(=O)N[C@@H](CCCCN)C(=O)N1CCC[C@H]1C(=O)N[C@@H](Cc1c[nH]c2ccccc12)C(=O)N[C@@H](CC(C)C)C(=O)O` (H-FTWVSQSNHIPMEIEEDSAKPWL-OH; N-terminus and C-terminus assumed): the “effect on HUVEC viability (in words)” value in the data set on HUVECs [1] (31.25–1000 μg/mL) is recorded as “clear inhibitory effect”.

Turning to `CC(C)(N=NC(C)(C)C(=N)N)C(=N)N.Cl.Cl` [AAPH, 2,2′‐azobis(2‐methylpropionamidine) dihydrochloride], the cell survival rate is 92.64% ± 0.06% with HUVECs [2] (AAPH 4 mmol/L); 87.35% ± 0.05% with HUVECs [2] (AAPH 6 mmol/L); 78.64% ± 0.03% with HUVECs [2] (AAPH 8 mmol/L); 43.10% ± 0.04% in the data set with HUVECs [2] (AAPH 10 mmol/L); 5.07% ± 0.01% with HUVECs [2] (AAPH 12 mmol/L). The cell viability with HUVECs [2] (AAPH 0.25, 0.5, 1, and 2 mmol/L, significantly higher than control (p < 0.01)) is greater than 100%.

Consider `CC(C)[C@H](NC(=O)[C@H](C)N)C(=O)N[C@H](C(=O)N[C@@H](CCC(=O)O)C(=O)N[C@@H](CO)C(=O)N[C@@H](CCCCN)C(=O)O)C(C)C` [AVVESK] (H-AVVESK-OH; N-terminus and C-terminus assumed), for which the “cytotoxicity to HUVECs (in words)” value in the data set with HUVECs [1] (setting [8]) was “no cytotoxicity”.

In the case of `C[C@H](NC(=O)[C@@H](N)CC(=O)O)C(=O)N[C@@H](CO)C(=O)N[C@@H](CS)C(=O)N[C@@H](CCCCN)C(=O)O` [DASCK] (H-DASCK-OH; N-terminus and C-terminus assumed), in the data set on HUVECs [1], the “toxicity to HUVECs (in words)” value was “no toxicity” and the “effect on HUVEC growth (in words)” value is reported as “promoted cell growth”.

As for `CC[C@H](C)[C@H](NC(=O)[C@H](CC(=O)O)NC(=O)[C@@H](N)CC(=O)O)C(=O)N[C@@H](CCSC)C(=O)N[C@@H](CCC(=O)O)C(=O)N[C@@H](CC(=O)O)C(=O)N[C@@H](CCCCN)C(=O)N[C@@H](CC(=O)O)C(=O)N[C@@H](CC(N)=O)C(=O)N[C@@H](Cc1ccccc1)C(=O)O` [DDIMEDKDNF] (H-DDIMEDKDNF-OH; N-terminus and C-terminus assumed), the “cytotoxicity to HUVECs (in words)” value in the data set on HUVECs [1] (3.9–250 μg/mL) is reported as “nontoxic”.

`NCCCC[C@H](NC(=O)[C@H](CC(=O)O)NC(=O)[C@H](CCC(=O)O)NC(=O)[C@H](CC(=O)O)NC(=O)[C@H](CCC(=O)O)NC(=O)[C@H](CC(=O)O)NC(=O)[C@H](CCC(=O)O)NC(=O)[C@@H](N)CC(=O)O)C(=O)O` [DEDEDEDK] (H-DEDEDEDK-OH; N-terminus and C-terminus assumed): the “effect on HUVEC growth (in words)” value in the data set with HUVECs [1] was “promoted cell growth”. Besides, the “ROS content compared with the model group (in words)” value in the data set with HUVECs damaged by AAPH [3] (DEDEDEDK 1000 μg/mL, p < 0.05) is listed as “significantly reduced”. In the data set with HUVECs damaged by AAPH [3] (DEDEDEDK 250 and 500 μg/mL, p > 0.05), the “ROS levels compared with the model group (in words)” value was “no significant change”. Also, the “GSH content in the cells vs model group (in words)” value in the data set with HUVECs damaged by AAPH [4] was “significantly increased”. The “SOD activity in the cells vs model group (in words)” value in the data set with HUVECs damaged by AAPH [5] is reported as “increased significantly”. The “CAT activity in the cells vs model group (in words)” value in the data set on HUVECs damaged by AAPH [6] is reported as “increased significantly”.

For the compound `CSCC[C@H](NC(=O)[C@H](Cc1ccc(O)cc1)NC(=O)CNC(=O)[C@H](CCSC)NC(=O)[C@@H](NC(=O)[C@H](CO)NC(=O)[C@@H](NC(=O)[C@@H](N)CC(=O)O)[C@@H](C)O)[C@@H](C)O)C(=O)N[C@@H](C)C(=O)N[C@@H](C)C(=O)N[C@@H](CCCCN)C(=O)O` [DTSTMGYMAAK] (H-DTSTMGYMAAK-OH; N-terminus and C-terminus assumed), the “toxicity to HUVECs (in words)” value with HUVECs [1] was “no toxicity”. The “cell viability compared with the model group (in words)” value with HUVECs damaged by AAPH [7] is recorded as “did not show significant differences”.

For `N[C@@H](CCC(=O)O)C(=O)N[C@@H](CC(=O)O)C(=O)N[C@@H](CCC(=O)O)C(=O)O` [EDE] (H-Glu-Asp-Glu-OH; N-terminus and C-terminus assumed), the “effect on HUVEC growth (in words)” value with HUVECs [1] is “promoted cell growth”. Moreover, the “cell viability compared with the model group (in words)” value in the data set with HUVECs damaged by AAPH [7] is listed as “did not show significant differences”.

For `CC(C)[C@H](NC(=O)[C@H](CCC(=O)O)NC(=O)[C@H](CCC(=O)O)NC(=O)[C@@H](NC(=O)[C@@H](NC(=O)[C@H](CCC(=O)O)NC(=O)[C@@H]1CCCN1C(=O)[C@H](CCC(=O)O)NC(=O)[C@@H](N)Cc1ccccc1)[C@@H](C)O)[C@@H](C)O)C(=O)N[C@@H](CCCNC(=N)N)C(=O)O` [FEPETTEEVR] (H-FEPETTEEVR-OH; N-terminus and C-terminus assumed), in the data set with HUVECs [1], the “toxicity to HUVECs (in words)” value is on record as “no toxicity” and the “effect on HUVEC growth (in words)” value is given as “promoted cell growth”.

For the compound `CC[C@H](C)[C@H](NC(=O)[C@H](Cc1c[nH]cn1)NC(=O)CNC(=O)[C@@H](N)Cc1ccccc1)C(=O)N[C@@H](CO)C(=O)N[C@H](C(=O)O)C(C)C` [FGHISV] (H-FGHISV-OH; N-terminus and C-terminus assumed), the “cytotoxicity to HUVECs (in words)” value in the data set with HUVECs [1] (setting [8]) was “no cytotoxicity”. Further, the “cell viability compared with the model group (in words)” value with HUVECs damaged by AAPH [7] is on record as “did not show significant differences”.

Regarding `NCC(=O)N[C@@H](CCC(=O)O)C(=O)N[C@@H](Cc1ccc(O)cc1)C(=O)N[C@@H](CCC(N)=O)C(=O)O` [GEYQ] (H-GEYQ-OH; N-terminus and C-terminus assumed), the “effect on HUVEC viability (in words)” value in the data set on HUVECs [1] (3.9–62.5 μg/mL) is listed as “clear inhibitory effect”.
